The text below walks through data of patent US20240366526A1, “COMPOSITIONS AND METHODS FOR MAINTAINING OR ENHANCING MICROBIAL BALANCE OF THE SKIN AND MUCOSA” (Reckitt Benckiser Health Limited, priority 2023, published 2024).

Assay in all cases: MIC determination (EUCAST / ISO 20776 microdilution)
Common to all, as to format: cell-based

Experiment [1] has as its system Gardnerella vaginalis LF1. To be noted: clinical vaginal isolate; 37° C., microaerophilic, 24 and 48 h; single substance. An excerpt: The strains used were Lactobacillus crispatus LF6 and Lactobacillus gasseri LF7), one strain of Gardnerella vaginalis LF1 and one strain of Candida albicans LF, that correspond to clinical isolates collected from women vaginal cavity. The antimicrobial activity method was based on the current standards described by EUCAST (European Committee on Antimicrobial Susceptibility Testing) and ISO 20776-1 (2006) and ISO 20776-2-(2007) for determining the minimum inhibitory concentration (MIC). Terpinen-4-ol and Carvacrol were emulsified with DMSO (up to 1% (v/v)) in culture medium to obtain a concentration corresponding to 2× higher than the testing one. Sequential dilutions (1:2) were prepared in a sterile 96 wells plate with culture medium. […]
In parallel, calibrated suspensions of microorganisms were prepared with a cell density of 1.0 on the McFarland scale (Lactobacillus spp. and Candida albicans) and 0.13 absorbance (Gardnerella vaginalis), corresponding to 1×10^8 CFU/mL for bacteria (Lactobacillus spp. and Gardnerella vaginalis) and 1×10^6 CFU/mL for yeast (Candida albicans). […]
After homogenization of the working microbial suspension with dilutions of the two ingredients, the 96-well plates were incubated according to the incubation conditions suitable for each microorganism. […] After incubation, the wells were evaluated macroscopically to check for microorganism growth. […]

Experiment [2] relates to Lactobacillus gasseri LF7. As for the experimental part:
(§1) Sequential dilutions (1:2) were prepared in a sterile 96 wells plate with culture medium. All preparations were performed in aseptic conditions. For each of the ingredients tested, 8 concentrations were tested. […] De Man, Rogosa and Sharpe Broth (MRSB) media was used for growth of Lactobacillus spp., New York City III Broth ([…]) media and Roswell Park Memorial Institute 1640 (RPMI-1640) media was used respectively to grow Gardnerella vaginalis and Candida albicans. […] After homogenization of the working microbial suspension with dilutions of the two ingredients, the 96-well plates were incubated according to the incubation conditions suitable for each microorganism. For, L. crispatus and L. gasseri, incubation was done at 37° C. for 24 and 48h in microaerophilic atmosphere. […] After incubation, the wells were evaluated macroscopically to check for microorganism growth. Turbid wells indicated the presence of microbial growth, and clear wells indicated the absence of microbial growth. The lowest concentration tested in which wells without turbidity, correspondent to the minimum inhibitory concentration (MIC). To validate the test, three negative controls (sterility control of the culture medium; study substance dilutions with culture medium; emulsifier with culture medium) and two positive controls (growth control for each microorganism using culture media and growth control for each microorganism using emulsifier with culture media) were performed.

Experiment [3] concerns Candida albicans LF1. Here is the method: as §1
In experiment [4] the test system is Lactobacillus crispatus LF6. Here is the method:
as §1

The mark [5] stands for this setting: terpinen-4-ol 2.5 μl/ml and 5 μl/ml.

On to `CC1=CCC(O)(C(C)C)CC1` (centres unmarked) [Terpinen-4-ol], for which the “MIC for Gardenella vaginalis LF1” value in experiment [1] was found to be 2.5 μl/ml. The “effect on Lactobacillus gasseri growth” value in experiment [2] (setting [5]) is on record as “unaffected”. Moreover, the “MIC for C. albicans LF1” value in experiment [3] (clinical vaginal isolate, 32.5° C., aerophilic, 24 and 48 h, single substance) is on record as 5 μl/ml. Further, the “effect on Lactobacillus crispatus growth” value in experiment [4] (setting [5]) is listed as “unaffected”.
In the case of `Cc1ccc(C(C)C)cc1O` [Carvacrol, carvacrol], in experiment [1], the “MIC for Gardenella vaginalis LF1” value stood at 0.31 μl/ml. Besides, in experiment [2] (carvacrol 0.31 μl/ml), the “effect on Lactobacillus gasseri growth” value is on record as “unaffected”. In addition, the “inhibition for C. albicans LF1” value in experiment [3] (carvacrol 0.31 μl/ml) was determined as 50%. Moreover, in experiment [4] (carvacrol 0.31 μl/ml), the “effect on Lactobacillus crispatus growth” value is “unaffected”.
